This passage reports IC50 results from article PMC10517971, “An inverse agonist of orphan receptor GPR61 acts by a G protein-competitive allosteric mechanism” (Nature Communications, 2023).

In experiment [1] the target is Cav1.2 (Homo sapiens, UniProt Q13936). Description: cell-based. The source says: (§1) 105 hERG, Nav1.5 and Cav1.2 Ion Channel Profiling
(§2) 106 Ionic curr ents wer e evalu ated in the whole-cell con figuration using the Qube384 automated planar
(§3) 107 patch clamp platform (Sophion Bioscience A/S, Ballerup, Denmark). […]
113 experiments, the ext ernal solution was composed of (in mM): 137.9 NaCl, 5.3 KCl, 0.49 MgCl2,
115 mOsM. The internal solution contained (in mM ): 27 CF, 112 CsCl, 2 MgCl2, 10 EGTA, 10
(§4) 116 HEPES, 2 Na2ATP, pH 7.2, 305 mOsM. […]
123 at a rate of 0.05 Hz. Peak hERG current was measured during the ramp. The Cav1.2 current was
124 elicited by a voltage step to 0 mV for 150 ms from a holding potential of -40 mV. Voltage steps
125 were repeated at 0.05 Hz, and Cav1.2 amplitude was measured as the peak current at 0 mV. For
(§5) 126 Nav1.5 current, from a holding potential of - 80 mV, a 200 ms prepulse to - 120 mV was used to
(§6) 127 homogenize channel inactivation, followed by a 40 ms step to a test potential of - 15 mV.
(§7) 128 Membrane potential was further depolarized to +40 mV for 200 ms to completely inactivate the
(§8) 129 peak Nav1.5 current, followed by a ramp from +40 mV to - 80 mV (-1.2 mV/ms). This voltage
(§9) 130 pattern was repeated at 0.1 Hz, with peak Nav1.5 defined as the maximum current during the step
(§10) 131 to - 15 mV. All studies were conducted at 23° C.
(§11) 132 Compounds were dissol ved and initially diluted in dimethyl sulfoxide (DMSO), with a final
(§12) 133 dilution in external solution to generate final working concent rations. The final DMSO
(§13) 134 concentration in all experiments was 0.33% (v/v).
(§14) 135 For all protocols three vehicle periods each lasting 5 minutes were applied to establish a stable
(§15) 136 baseline. For the standard protocol this was followed by the addition of increasing concentrations
(§16) 137 of test compound, with each exposure lasting 5 minutes. For the “extended” protocol following
(§17) 138 the three- vehi cle additional each well subsequentl y received a single concentration of compound.
(§18) 139 This application was repeated three times for each well, via a flowthrough addition where the
(§19) 140 solution was replaced wi th the same compound concentration with each addition. Each exposure
(§20) 142 Patch clamp data were analyzed using Assay Software 6.4.72 (Sophion Bioscience A/S, Ballerup,
(§21) 143 Denmark). Current amplitudes were determined by averaging the last 4 currents under each test
(§22) 144 condition. The percentage inhibition of each compound was determined by taking the ratio of
(§23) 145 current amplitude measured in the presence of various concentrations of the test compound
(§24) 146 (ICompound) versus the vehicle control current (IVehicle):
(§25) 148 A dose-response curve was generat ed and fit to the Hill equation by the Sophion Analyzer software
(§26) 149 to determine an IC50 value for each compound. The minimum and the slope of the fit were free
150 fitted, with the top being fixed to 100% inhibition. […]

Experiment [2] addresses Nav1.5 (Peak) (Homo sapiens, UniProt Q14524). Description: Nav1.5 (peak current) ion channel profiling, Qube384 automated patch clamp (standard and extended protocol). It is filed as cell-based.
Source text: as §1, §2, §3, §4, §5, §6, §7, §8, §9, §10, §11, §12, §13, §14, §15, §16, §17, §18, §19, §20, §21, §22, §23, §24, §25, §26
150 fitted, with the top being fixed to 100% inhibition.
151 GABA Patch Clamp Assay
152 Compound effects on the human GABAA recepto r (α1β2γ2), stably express ed in human embryonic
153 kidney (HEK) cells, were examined in three modes of action: agonist, antagonist and positive
154 allosteric modulation (PAM) modes. Chloride currents evoked by the activation of the GABAA
155 recepto r wer e reco rded in the whole- cell patch clamp configuration with the automated Qube384®
156 platform (Sophion Bioscience A/S, Baltorpvej, Denmark). […]
In general terms: The patch-clamp technique gives a direct electrical read-out from membranes.

Structures are written as SMILES. Where two headings read alike, the source gives them in different places.

Nav1.5 (Peak), sequence (Q14524 whole entry): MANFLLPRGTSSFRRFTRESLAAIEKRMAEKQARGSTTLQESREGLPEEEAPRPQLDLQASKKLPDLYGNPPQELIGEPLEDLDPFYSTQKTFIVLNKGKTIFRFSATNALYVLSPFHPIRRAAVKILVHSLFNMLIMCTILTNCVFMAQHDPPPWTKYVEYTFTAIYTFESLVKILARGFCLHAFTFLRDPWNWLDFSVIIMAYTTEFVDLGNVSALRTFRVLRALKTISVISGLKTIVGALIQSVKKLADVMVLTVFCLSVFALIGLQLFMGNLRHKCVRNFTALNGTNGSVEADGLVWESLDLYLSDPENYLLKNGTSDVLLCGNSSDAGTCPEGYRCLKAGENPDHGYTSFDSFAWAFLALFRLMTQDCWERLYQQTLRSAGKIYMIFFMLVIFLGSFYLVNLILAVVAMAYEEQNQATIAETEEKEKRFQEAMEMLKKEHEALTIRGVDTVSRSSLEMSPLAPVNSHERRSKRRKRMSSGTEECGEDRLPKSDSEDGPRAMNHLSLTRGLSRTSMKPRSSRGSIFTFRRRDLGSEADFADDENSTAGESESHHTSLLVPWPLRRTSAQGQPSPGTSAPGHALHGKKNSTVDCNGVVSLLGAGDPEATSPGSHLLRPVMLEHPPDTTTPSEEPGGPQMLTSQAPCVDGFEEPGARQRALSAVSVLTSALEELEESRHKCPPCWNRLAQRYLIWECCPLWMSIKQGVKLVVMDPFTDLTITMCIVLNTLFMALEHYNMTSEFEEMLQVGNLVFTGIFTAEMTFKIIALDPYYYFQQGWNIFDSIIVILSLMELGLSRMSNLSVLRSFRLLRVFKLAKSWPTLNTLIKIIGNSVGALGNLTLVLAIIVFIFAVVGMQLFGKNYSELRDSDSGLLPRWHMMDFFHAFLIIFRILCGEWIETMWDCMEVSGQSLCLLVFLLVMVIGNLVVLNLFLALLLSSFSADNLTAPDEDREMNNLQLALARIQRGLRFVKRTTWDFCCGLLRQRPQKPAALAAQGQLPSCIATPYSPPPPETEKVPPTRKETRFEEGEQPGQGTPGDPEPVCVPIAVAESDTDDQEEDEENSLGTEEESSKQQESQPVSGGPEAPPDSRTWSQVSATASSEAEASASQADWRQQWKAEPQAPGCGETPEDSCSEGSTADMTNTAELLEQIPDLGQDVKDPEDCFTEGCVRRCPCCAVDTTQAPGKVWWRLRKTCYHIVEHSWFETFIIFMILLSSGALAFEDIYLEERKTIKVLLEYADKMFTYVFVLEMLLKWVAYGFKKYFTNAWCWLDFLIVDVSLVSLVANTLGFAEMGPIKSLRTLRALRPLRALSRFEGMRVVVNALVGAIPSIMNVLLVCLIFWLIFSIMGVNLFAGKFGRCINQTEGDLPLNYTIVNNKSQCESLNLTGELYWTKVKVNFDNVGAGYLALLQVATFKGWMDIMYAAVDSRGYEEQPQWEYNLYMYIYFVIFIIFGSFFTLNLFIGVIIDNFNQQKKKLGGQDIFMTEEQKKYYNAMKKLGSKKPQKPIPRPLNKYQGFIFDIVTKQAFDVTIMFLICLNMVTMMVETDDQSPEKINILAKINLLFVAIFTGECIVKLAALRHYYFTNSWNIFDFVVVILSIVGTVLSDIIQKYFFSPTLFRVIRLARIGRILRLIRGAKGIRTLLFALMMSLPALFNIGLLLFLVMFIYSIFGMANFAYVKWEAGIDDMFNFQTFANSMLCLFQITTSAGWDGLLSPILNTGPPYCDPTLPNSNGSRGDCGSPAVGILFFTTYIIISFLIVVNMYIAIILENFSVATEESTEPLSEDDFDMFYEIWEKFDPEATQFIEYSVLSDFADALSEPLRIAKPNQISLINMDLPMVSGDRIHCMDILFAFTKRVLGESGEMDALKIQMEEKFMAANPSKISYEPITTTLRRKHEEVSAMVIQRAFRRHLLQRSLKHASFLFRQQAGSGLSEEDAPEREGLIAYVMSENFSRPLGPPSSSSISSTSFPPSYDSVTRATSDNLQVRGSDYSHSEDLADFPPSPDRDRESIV

On to `CCOc1cc(C)nc(N(CCOC)S(=O)(=O)c2ccc(NCc3c(F)cncc3F)nc2OC)n1` [Compound 1], for which the IC50 was 44800 nM in experiment [1] (IC50 (nM), Calcium Channel Cav1 (so in the source), standard protocol); 21100 nM in experiment [1] (Ion Channel Extended Protocol IC50 (nM), Period 1st, Cav1.2, extended protocol, 1st period); 10700 nM in experiment [1] (Ion Channel Extended Protocol IC50 (nM), Period 2nd, Cav1.2, extended protocol, 2nd period); 5930 nM in experiment [1] (Ion Channel Extended Protocol IC50 (nM), Period 3rd, Cav1.2, extended protocol, 3rd period); greater than 100000 nM in experiment [2]; greater than 100000 nM in experiment [2] (read-out: Ion Channel Extended Protocol IC50 (nM), Period 1st, Nav1.5 (Peak), extended protocol, 1st period). The IC50 in experiment [2] (read-out: Ion Channel Extended Protocol IC50 (nM), Period 2nd, Nav1.5 (Peak), extended protocol, 2nd period) is greater than 100000 nM; in experiment [2] (read-out: Ion Channel Extended Protocol IC50 (nM), Period 3rd, Nav1.5 (Peak), extended protocol, 3rd period) it was greater than 100000 nM.

As usually defined, the IC50 is the point on the concentration scale where inhibition reaches its midpoint.
